Experimental data from publication PMC9182188, “Isoquinoline Alkaloid Contents in Macleaya cordata Extracts and Their Acetylcholinesterase and Butyrylcholinesterase Inhibition” (Molecules, 2022).
Converted amounts (≈) assume the structure as drawn. Read-outs that look alike come from different tables or passages of the source.

Legend:
acetylcholinesterase [1] = biological target: T1, acetylcholinesterase (Homo sapiens, UniProt P22303); type: biochemical; settings: alkaloid standards; HPLC-DAD; 0.2 U/mL enzyme; 15 min at 37 °C; pH 7.8
T1 construct: purchased Sigma-Aldrich
Method: For determination of acetylcholinesterase inhibitory activity of alkaloid standards and plant extracts by HPLC analysis was performed on the same apparatus as determination of alkaloid contents on Polar RP column with mobile phase A containing methanol and 0.0025 M diethylamine, mobile phase B containing acetate buffer at pH 3.8 and 0.0025 M diethylamine, mobile phase in gradient elution: 0–15 min, 10% A; 15–30 min, 10–70% A; 30–60 min, 70% A. Flow rate was 1 mL/min.
(§1) Samples for determination of acetylcholinesterase inhibitory activity were prepared by addition of 50 µL of acetylthiocholine iodide, 50 µL of 5′-dithiobis-(2-nitrobenzoic acid), 50 µL of acetylcholinesterase at concentration 2 U/mL and phosphate buffer at pH 7.8 to obtaining 500 µL of final solution. […] All components were mixed and samples were incubated for 15 min at 37 °C. Samples were filtrated by syringe filter (CHROMAFIL Xtra, PVDF-29/25 0.20 µm) and injected into HPLC system. […] All experiments were performed in triplicates.

[2] = system: swine or human cell lines; settings: cited from earlier work
acetylcholinesterase [3] = biological target: T1, acetylcholinesterase; test: Kinetic analysis of acetylcholinesterase inhibition (Lineweaver-Burk and secondary plots); type: biochemical; settings: for type of acetylcholinesterase inhibition: Lineweaver-Burk and Dixon plots; for Ki: estimated from slope of Lineweaver-Burk plots vs inhibitor concentration, read-out: Ki (inhibition constant), acetylcholinesterase
Source text: The type of inhibition and inhibition constants (Ki value) of the compounds were investigated using Lineweaver–Burk and Dixon plots (Figure 5 and Figure 6).
The Ki values were estimated by plotting the slope of the individual Lineweaver–Burk plots versus the inhibitor concentrations (Figure 5B and Figure 6B).
For determination of 5-thio-2-nitro-benzoic acid, the product of reaction between the thiocholine with Ellman’s reagent, HPLC-DAD method was applied. The chromatographic analysis was performed in the same conditions as was used for determination of cholinesterase activity described above. Quantification of 5-thio-2-nitro-benzoic acid was performed by a calibration curve method. 5-thio-2-nitrobenzoic acid was prepared from 5′-dithiobis-(2-nitrobenzoic acid) as described by Landino et al.. 0.5 g of 5′-dithiobis-(2-nitrobenzoic acid) in 25 mL 0.5 M Tris–HCl, pH 8.8, was treated with 2.5 mL β-mercaptoethanol. The pH of the solution was adjusted to 1.5 with 6M HCl. 5-thio-2-nitro-benzoic acid was formed after 6–8 h at 4 °C. The crystals of -thio-2-nitro-benzoic acid were filtered and washed with cold 0.1 M HCl. Types of inhibition were determined by the graphical analysis of Lineweaver–Burk plots and its secondary plots.

butyrylcholinesterase [4] = biological target: T2, butyrylcholinesterase (Homo sapiens, UniProt P06276); test: Butyrylcholinesterase inhibitory activity by HPLC-DAD (Ellman reaction product TNBA); type: biochemical; settings: alkaloid standards, 0.2 U/mL enzyme, 15 min at 37 °C
T2 construct: purchased Sigma-Aldrich
Method: For determination of butyrylcholinesterase inhibitory activity of alkaloid standards and plant extracts by HPLC analysis was performed on the same apparatus, column and mobile phase as determination of acetylcholinesterase inhibitory activity.
as §1, with “butyrylcholinesterase” for “acetylcholinesterase”, “butyrylthiocholine” for “acetylthiocholine”

acetylcholinesterase [5] = biological target: T1, acetylcholinesterase; settings: modified Ellman's method; read-out: IC50 against acetylcholinesterase; cited from earlier work
pig livers = settings: 32P-post-labeling assay; cited from earlier work
butyrylcholinesterase [6] = biological target: T2, butyrylcholinesterase; settings: modified Ellman's method; read-out: IC50 against butyrylcholinesterase; cited from earlier work
[7] = pH 7.8, read-out: IC50 values Butyrylcholinesterae
[8] = pH 7.8, read-out: IC50 values Butyrylcholinesterae (μg/mL) (converted)

T1 sequence (P22303 32-614, species assumed): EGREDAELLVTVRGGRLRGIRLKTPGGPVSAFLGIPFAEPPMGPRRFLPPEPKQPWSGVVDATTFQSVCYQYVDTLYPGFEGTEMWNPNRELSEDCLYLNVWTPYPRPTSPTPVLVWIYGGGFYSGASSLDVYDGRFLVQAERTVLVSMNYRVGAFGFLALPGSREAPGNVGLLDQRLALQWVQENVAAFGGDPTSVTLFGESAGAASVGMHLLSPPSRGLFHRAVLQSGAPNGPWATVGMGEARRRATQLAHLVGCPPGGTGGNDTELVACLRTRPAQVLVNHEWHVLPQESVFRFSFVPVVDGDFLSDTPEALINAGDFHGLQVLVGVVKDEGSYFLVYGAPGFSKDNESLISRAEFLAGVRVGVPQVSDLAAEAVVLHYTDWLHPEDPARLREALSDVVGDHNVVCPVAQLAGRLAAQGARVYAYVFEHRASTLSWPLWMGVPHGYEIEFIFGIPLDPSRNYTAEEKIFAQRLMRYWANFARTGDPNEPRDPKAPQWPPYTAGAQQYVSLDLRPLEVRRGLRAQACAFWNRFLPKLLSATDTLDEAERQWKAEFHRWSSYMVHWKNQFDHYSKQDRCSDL
T2 sequence (P06276 29-602): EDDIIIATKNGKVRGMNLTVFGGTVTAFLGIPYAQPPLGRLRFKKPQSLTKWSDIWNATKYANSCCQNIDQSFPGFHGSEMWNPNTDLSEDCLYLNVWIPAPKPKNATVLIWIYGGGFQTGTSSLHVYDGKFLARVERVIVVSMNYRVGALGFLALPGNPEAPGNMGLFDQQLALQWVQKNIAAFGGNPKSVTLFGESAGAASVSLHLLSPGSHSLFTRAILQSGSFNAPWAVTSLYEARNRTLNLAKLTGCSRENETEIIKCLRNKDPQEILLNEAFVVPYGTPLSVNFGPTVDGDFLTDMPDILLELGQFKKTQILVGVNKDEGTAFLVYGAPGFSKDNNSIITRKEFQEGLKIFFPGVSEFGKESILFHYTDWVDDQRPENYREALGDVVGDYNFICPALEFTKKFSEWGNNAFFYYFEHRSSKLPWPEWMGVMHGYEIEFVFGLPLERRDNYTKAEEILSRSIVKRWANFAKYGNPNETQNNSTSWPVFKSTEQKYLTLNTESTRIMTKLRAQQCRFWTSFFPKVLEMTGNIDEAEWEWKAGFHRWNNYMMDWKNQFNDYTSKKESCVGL

SMILES | IC50 (acetylcholinesterase [1]) | toxicity [2] | type of acetylcholinesterase inhibition (acetylcholinesterase [3]) | Ki (acetylcholinesterase [3]) | IC50 (butyrylcholinesterase [4]; [7]) | IC50 (butyrylcholinesterase [4]; [8]) | IC50 (acetylcholinesterase [5]) | DNA adducts (pig livers) | IC50 (butyrylcholinesterase [6]) | IC50 values Acetylcholinesterase (acetylcholinesterase [1]) | IC50 (butyrylcholinesterase [4]; IC50 values Butyrylcholinesterae (μM), pH 7.8) | IC50 (butyrylcholinesterase [4]; IC50 values Butyrylcholinesterae (μg/mL), pH 7.8)
COc1ccc2c(c[n+](C)c3c4cc5c(cc4ccc23)OCO5)c1OC [Chelerythrine, chelerythrine] | 720 ± 80 nM | low toxicity | competitive | 180 nM | 2.15 ± 0.19 µM | 2.15 µM | 1030 nM | no DNA adducts | 3550 nM |  |  | 
CN1CCc2cc3c(cc2C(=O)Cc2ccc4c(c2C1)OCO4)OCO3 [Protopine, protopine] |  |  |  |  |  |  |  |  |  | 24.67 µg/mL (≈ 69.8 µM) | 52.8 ± 4.81 µM | 52.8 µM
C[n+]1cc2c3c(ccc2c2ccc4cc5c(cc4c21)OCO5)OCO3 [Sanguinarine, sanguinarine] | 5570 ± 470 nM | low toxicity | noncompetitive | 200 nM | 9.82 ± 0.91 µM | 9.81 µM |  | no DNA adducts |  |  |  | 
